Data reported in ChEMBL document CHEMBL2176989, “Design, synthesis, and pharmacological evaluation of piperidin-4-yl amino aryl sulfonamides: novel, potent, selective, orally active, and brain penetrant 5-HT₆ receptor antagonists” (J Med Chem, 2012).
Calls of active or inactive are those of the source. The rule behind the calls is not given here.

Assays:
Rattus norvegicus = experiment: Procognitive activity in Wistar rat assessed as reversal of time delay-induced memory deficit at 0.3 mg/kg, po by object recognition test; assay type: functional, organism-based; set-up: dose 0.3 mg/kg
[1] = Cmax in fasted beagle dog at 3 mg/kg, po; assay type: ADME, organism-based, Canis lupus familiaris; set-up: dose 3 mg/kg, route oral; conditions: in vivo
[2] = Half life in beagle dog at 1 mg/kg, iv; assay type: ADME, organism-based, Canis lupus familiaris; set-up: dose 1 mg/kg, route intravenous; conditions: in vivo
[3] = AUC (0 to 24 hrs) in beagle dog at 1 mg/kg, iv; assay type: ADME, organism-based, Canis lupus familiaris; set-up: time < 24 hr, dose 1 mg/kg, route intravenous; conditions: plasma
[4] = target: 5-hydroxytryptamine receptor 4 (Homo sapiens, UniProt Q13639); experiment: Binding affinity to 5HT4 receptor
5-hydroxytryptamine receptor 4, sequence (Q13639 whole entry): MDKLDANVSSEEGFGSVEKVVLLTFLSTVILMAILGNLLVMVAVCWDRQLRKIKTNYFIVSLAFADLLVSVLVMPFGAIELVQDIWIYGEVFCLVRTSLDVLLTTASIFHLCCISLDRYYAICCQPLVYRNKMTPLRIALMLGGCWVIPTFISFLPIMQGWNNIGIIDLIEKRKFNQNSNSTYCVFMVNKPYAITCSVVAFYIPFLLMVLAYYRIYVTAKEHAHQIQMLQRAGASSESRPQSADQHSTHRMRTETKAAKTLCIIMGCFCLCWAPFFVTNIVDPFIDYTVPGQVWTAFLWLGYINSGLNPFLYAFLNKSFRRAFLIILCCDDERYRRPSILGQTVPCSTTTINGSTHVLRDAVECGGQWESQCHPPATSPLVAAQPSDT

[5] = target: T1, 5-hydroxytryptamine receptor 3A (Homo sapiens, UniProt P46098); experiment: Binding affinity to 5HT3 receptor
T1 sequence (P46098 whole entry): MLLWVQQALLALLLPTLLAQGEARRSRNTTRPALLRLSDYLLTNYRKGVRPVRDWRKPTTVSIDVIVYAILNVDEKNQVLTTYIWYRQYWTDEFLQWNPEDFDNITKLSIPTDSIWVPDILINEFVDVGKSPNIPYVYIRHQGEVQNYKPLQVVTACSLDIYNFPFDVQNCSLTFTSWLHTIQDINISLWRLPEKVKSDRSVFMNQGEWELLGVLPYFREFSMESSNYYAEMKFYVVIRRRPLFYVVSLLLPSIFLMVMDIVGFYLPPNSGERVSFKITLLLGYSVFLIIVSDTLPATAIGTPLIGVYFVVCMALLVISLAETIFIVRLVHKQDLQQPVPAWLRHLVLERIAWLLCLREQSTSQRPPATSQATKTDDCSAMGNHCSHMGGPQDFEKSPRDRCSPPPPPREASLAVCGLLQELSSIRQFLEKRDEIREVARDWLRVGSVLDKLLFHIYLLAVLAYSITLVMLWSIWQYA

D(2) dopamine receptor = D(2) dopamine receptor (Homo sapiens, UniProt P14416); experiment: Binding affinity to dopamine D2 receptor
D(2) dopamine receptor, sequence (P14416 whole entry): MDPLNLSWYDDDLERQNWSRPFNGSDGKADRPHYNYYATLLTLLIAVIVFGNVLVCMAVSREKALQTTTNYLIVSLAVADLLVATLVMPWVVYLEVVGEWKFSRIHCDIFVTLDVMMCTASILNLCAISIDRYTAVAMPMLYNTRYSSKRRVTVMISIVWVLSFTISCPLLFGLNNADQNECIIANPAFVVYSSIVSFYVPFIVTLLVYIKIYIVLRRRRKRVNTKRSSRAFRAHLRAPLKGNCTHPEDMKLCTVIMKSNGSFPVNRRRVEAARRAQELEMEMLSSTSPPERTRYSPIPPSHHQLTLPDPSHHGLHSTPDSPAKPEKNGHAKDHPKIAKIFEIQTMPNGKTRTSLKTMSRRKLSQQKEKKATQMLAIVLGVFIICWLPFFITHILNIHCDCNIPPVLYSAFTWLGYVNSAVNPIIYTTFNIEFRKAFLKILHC

[6] = target: 5-hydroxytryptamine receptor 6 (Homo sapiens) (UniProt P50406); experiment: Antagonist activity at human recombinant 5HT6 receptor expressed in CHO cells assessed as inhibition of 5HT-induced luciferase activity after 4 hrs by reporter gene assay relative to control; assay type: functional, cell-based
5-hydroxytryptamine receptor 6 (Homo sapiens), sequence (P50406 whole entry): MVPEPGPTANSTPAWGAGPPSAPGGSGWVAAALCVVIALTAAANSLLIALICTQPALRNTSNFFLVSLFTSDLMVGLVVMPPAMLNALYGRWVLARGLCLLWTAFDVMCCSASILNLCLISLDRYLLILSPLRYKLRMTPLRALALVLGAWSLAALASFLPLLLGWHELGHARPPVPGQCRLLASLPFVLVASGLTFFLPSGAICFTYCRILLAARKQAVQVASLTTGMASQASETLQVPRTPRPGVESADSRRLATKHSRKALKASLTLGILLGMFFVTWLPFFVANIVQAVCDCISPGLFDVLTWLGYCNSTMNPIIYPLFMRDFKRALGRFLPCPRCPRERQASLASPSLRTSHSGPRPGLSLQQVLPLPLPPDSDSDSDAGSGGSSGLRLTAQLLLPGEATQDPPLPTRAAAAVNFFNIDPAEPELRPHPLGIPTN

Cytochrome P450 2D6 = Cytochrome P450 2D6 (Homo sapiens, UniProt P10635); experiment: Inhibition of CYP2D6 in human liver microsomes using dextromethorphan as substrate after 10 mins by LC-MS/MS analysis in presence of NADPH
Cytochrome P450 2D6, sequence (P10635 whole entry): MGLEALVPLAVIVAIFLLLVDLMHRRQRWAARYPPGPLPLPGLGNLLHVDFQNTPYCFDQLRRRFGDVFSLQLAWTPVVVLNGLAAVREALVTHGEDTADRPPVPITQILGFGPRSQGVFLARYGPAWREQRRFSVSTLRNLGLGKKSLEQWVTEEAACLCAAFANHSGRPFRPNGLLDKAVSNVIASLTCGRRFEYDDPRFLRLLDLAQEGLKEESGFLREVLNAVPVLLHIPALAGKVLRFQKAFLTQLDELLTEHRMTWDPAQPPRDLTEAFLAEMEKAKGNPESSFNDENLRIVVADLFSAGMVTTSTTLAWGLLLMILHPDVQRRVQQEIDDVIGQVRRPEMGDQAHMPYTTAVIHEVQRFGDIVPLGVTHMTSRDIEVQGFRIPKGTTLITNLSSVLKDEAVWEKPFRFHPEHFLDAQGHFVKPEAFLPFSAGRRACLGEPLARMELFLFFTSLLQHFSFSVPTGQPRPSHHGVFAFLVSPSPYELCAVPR

- Cmax [1]: 549 ng/mL
- half-life [2]: 2.3 h
- AUC(0-t) at 24 h [3]: 1400 ng·h/mL
- EC50 [4]: > 10 µM
- IC50 [5]: > 10 µM
- Ki (D(2) dopamine receptor): 1.81 µM
- Imax [6]: 100%
- IC50 (Cytochrome P450 2D6): > 45 µM
Compound: COc1ccc(S(=O)(=O)n2cc(C)c3cc(Cl)cnc32)cc1NC1CCN(C)CC1
- Activity (Rattus norvegicus): Active
